We go through two compounds from US11938228B2, “Particle-based multi-layer therapeutic delivery device and method” (Privo Technologies, Inc., priority 2017, dated 2024).

Series [1] is described as follows: release profile of encapsulated agent from chitosan particles (atomic absorption spectrometry). Format: physicochemical. To be noted: over 60 hours; particles with average diameter 500 to 2000 nm; detection by AAS. From the text: FIG. 1 is a graph showing the release profile of one embodiment of particles having an average diameter in the range of 500 to 2000 nm which may be included within a multi-layered device according to embodiments of the present invention. […] Cisplatin was used for this experiment due to its use in the treatment of oral cancer and its ease of detection via atomic absorption spectrometry (AAS).
FIG. 1 is a graph showing the release profile of example particles having an average diameter in the range of 500 to 2000 nm. […] Cisplatin was used for this experiment due to its use in the treatment of oral cancer and its ease of detection via atomic absorption spectrometry (AAS).

A short description of series [2]: permeation of fluorescent dye from two-layer device into buccal tissue (fluorescence microscopy). Format: in vitro ADME. Conditions: lamb buccal tissue, multi-layer device. From the text:
FIG. 2 is an image of an example multi-layered device according to example embodiments of the present invention. The device features two layers: one top layer including fluorescein isothiocyanate (FITC), a fluorescent dye which fluoresces green when examined under a fluorescent microscope, and one bottom layer including cyanine 5 (Cy5), a fluorescent dye which fluoresces red when examined under a fluorescent microscope.
FIGS. 5A-5C show three images taken from lamb buccal tissue at different time points.
In another representative embodiment, a multi-layered device may be used for the delivery of multiple agents over a prolonged period of time (FIG. 4, FIG. 5). If the example of mucositis is again used, multiple layers may include a pain mitigator in free form, a pain mitigator encapsulated within particles and an agent for the treatment of mucositis encapsulated within particles. The initial freeform layer is able to provide immediate pain relief, and the subsequent particle-encapsulated layers are capable of delivering particles beneath the tissue, where they further release their agents over a period of days, providing longer-term pain relief and treatment. FIG. 4 and FIG. 5 illustrate this effect. Fluorescence was used in order to provide detection. […]

Consider `N.N.[Cl][Pt][Cl]` [cisplatin], for which the “cisplatin released from particles” value in series [1] amounted to 45%. With fluorescein isothiocyanate [FITC], the permeation into tissue result in series [2] (after 30 minutes) is reported as “beginning to permeate the tissue”; in series [2] (after 1 hour), “permeating deeper into the tissue”.
